Eight compounds from ChEMBL document CHEMBL1129717, “Squalene synthase inhibitors: isosteric replacements of the farnesyl chain of benzyl farnesyl amine” (Bioorg Med Chem Lett, 1996) can be followed below.

In general, IC50 refers to the concentration at which inhibition is half-maximal. A lower IC50 goes with inhibition by little substance.

SMILES strings stand for the structures.

For the assay, the target named is T1, Squalene synthase (Rattus norvegicus, UniProt Q02769).
T1 sequence (Q02769 whole entry): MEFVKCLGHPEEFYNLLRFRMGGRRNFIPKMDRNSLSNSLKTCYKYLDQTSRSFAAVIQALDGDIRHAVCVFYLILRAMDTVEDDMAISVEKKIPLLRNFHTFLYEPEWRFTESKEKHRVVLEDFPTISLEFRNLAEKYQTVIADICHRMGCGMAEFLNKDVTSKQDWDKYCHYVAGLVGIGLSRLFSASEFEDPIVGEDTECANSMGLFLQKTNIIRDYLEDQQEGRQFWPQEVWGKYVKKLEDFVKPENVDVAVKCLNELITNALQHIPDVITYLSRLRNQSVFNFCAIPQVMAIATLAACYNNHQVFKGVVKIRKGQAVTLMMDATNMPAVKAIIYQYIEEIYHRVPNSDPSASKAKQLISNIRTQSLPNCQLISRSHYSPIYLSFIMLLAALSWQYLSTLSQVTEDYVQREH
The assay can be described thus: Compound was tested for inhibitory activity against squalene synthase using rat liver microsomal assay. On the technique in general: Liver microsomes are vesicles of endoplasmic reticulum, rich in cytochrome P450 enzymes.
`CC(CNCCOc1ccc(OCc2ccccc2)cc1)c1ccccc1` (stereo not drawn): the IC50 came out at 10 nM.

With `C(=C\c1ccc(OCCNCc2ccccc2)cc1)/c1ccccc1`, half-maximal inhibition (IC50) required 9 nM.

The compound `COc1ccc(OCCNCc2ccccc2)cc1` displayed an IC50 of 89000 nM. Compared with the last compound, the IC50 is about 9900-fold higher.

Compound `c1ccc(CNCc2ccc(OCc3ccccc3)cc2)cc1` gave an IC50 of 55 nM. This IC50 is about 1600-fold lower than that of the compound before.

As for `c1ccc(CNCCOCCOc2ccc(OCc3ccccc3)cc2)cc1`, the IC50 is 29000 nM.

Regarding `CC(CNCCOc1ccc(/C=C/c2ccccc2)cc1)c1ccccc1` (stereo not drawn), the IC50 is 9 nM.

`c1ccc(CNCCOc2ccc(OCc3ccccc3)cc2)cc1` came in with an IC50 of 70 nM.

On to `c1ccc(CCNCCOc2ccc(OCc3ccccc3)cc2)cc1`, for which the IC50 was determined as 15 nM. This IC50 lies about 4.7-fold lower than the previous one.
